Experiments:
[1] = molecular target: T1, GHSR1a (Homo sapiens, UniProt Q92847); assay: Calcium FLIPR assay, GHSR-1a antagonism (reduction of ghrelin response); type: cell-based; settings: HEK293/GHSR1a cells, ghrelin 10 nM
T1 construct: expressed in transfected cells; host or cells: HEK293
Summary of the method: (§1)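 HEK293/GHSR1a; dye load 30-60 min, RT or 37° C; agonist: cpd at t=20 sec, Ca2+ read 2 min; antagonist: cpd + ghrelin 10 nM at t=20 sec, 2 min read; EC50/IC50 from dose-response fits.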

[2] = molecular target: T1, GHSR1a; assay: Calcium FLIPR assay, GHSR-1a agonism; type: cell-based; parameters: Emax: unit not given here; settings: HEK293/GHSR1a cells
Summary of the method: as §1

T1 sequence (Q92847 whole entry): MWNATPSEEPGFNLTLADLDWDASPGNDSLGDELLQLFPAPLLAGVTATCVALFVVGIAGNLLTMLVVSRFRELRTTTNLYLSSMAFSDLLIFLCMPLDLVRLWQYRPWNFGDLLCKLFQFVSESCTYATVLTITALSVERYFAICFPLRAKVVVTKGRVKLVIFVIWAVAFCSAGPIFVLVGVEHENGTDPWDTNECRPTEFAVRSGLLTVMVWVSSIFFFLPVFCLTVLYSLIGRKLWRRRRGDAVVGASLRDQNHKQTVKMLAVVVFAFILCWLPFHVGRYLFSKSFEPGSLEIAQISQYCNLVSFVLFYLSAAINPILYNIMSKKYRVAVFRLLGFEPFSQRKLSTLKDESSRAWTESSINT

SMILES	IC50 [1]	EC50 [2]	Emax [2]
CCON(C(=O)NC(C)c1ccc(-c2cnccn2)c(Cl)c1Cl)C1CCN(C)CC1 (centres unmarked) [Compound H0750, 3-(1-(2,3-dichloro-4-(pyrazin-2-yl)phenyl)ethyl)-1-ethoxy-1-(1-methylpiperidin-4-yl)urea]	177 nM	> 30000 nM	
CCON(C(=O)NC(CC1CC1)c1ccc(-c2cnccn2)c(Cl)c1Cl)C1CCN(C)CC1 (centres unmarked) [Compound H0752, 3-(2-cyclopropyl-1-(2,3-dichloro-4-(pyrazin-2-yl)phenyl)ethyl)-1-ethoxy-1-(1-methylpiperidin-4-yl)urea]	100 nM	> 30000 nM	
CC(NC(=O)N(C)C1CCN(C)CC1)c1ccc(C#CCO)c(Cl)c1Cl (centres unmarked) [Compound H0755, 3-(1-(2,3-dichloro-4-(3-hydroxyprop-1-yn-1-yl)phenyl)ethyl)-1-methyl-1-(1-methylpiperidin-4-yl)urea]	12 nM	10 nM	2196
CC(NC(=O)N(O)C1CCN(C)CC1)c1ccc(-c2cnccn2)c(Cl)c1Cl (centres unmarked) [Compound H0756, 3-(1-(2,3-dichloro-4-(pyrazin-2-yl)phenyl)ethyl)-1-hydroxy-1-(1-methylpiperidin-4-yl)urea]	13 nM	13 nM	1729
CC(NC(=O)N(C)C1CCN(C)CC1)c1ccc(-c2cncc(C3CC3)c2)c(Cl)c1Cl (centres unmarked) [Compound H0765, 3-(1-(2,3-dichloro-4-(5-cyclopropylpyridin-3-yl)phenyl)ethyl)-1-methyl-1-(1-methylpiperidin-4-yl)urea]	61 nM	137 nM	2810
CC(NC(=O)N(C)C1CCN(C)CC1)c1ccc(-c2cncc([N+](=O)[O-])c2)c(Cl)c1Cl (centres unmarked) [Compound H0766, 3-(1-(2,3-dichloro-4-(5-nitropyridin-3-yl)phenyl)ethyl)-1-methyl-1-(1-methylpiperidin-4-yl)urea]	171 nM	> 30000 nM	
CC(NC(=O)N(C)C1CCN(C)CC1)c1ccc(-c2ccncn2)c(Cl)c1Cl (centres unmarked) [Compound H0768, 3-(1-(2,3-dichloro-4-(pyrimidin-4-yl)phenyl)ethyl)-1-methyl-1-(1-methylpiperidin-4-yl)urea]	279 nM	> 30000 nM	
CC(NC(=O)N(C)C1CCN(C)CC1)c1ccc(-c2cnc(C(=O)N(C)C)cn2)c(Cl)c1Cl (centres unmarked) [Compound H0771, 5-(2,3-dichloro-4-(1-(3-methyl-3-(1-methylpiperidin-4-yl)ureido)ethyl)phenyl)-N,N-dimethylpyrazine-2-carboxamide]	9 nM	9 nM	4662
CC(NC(=O)N(C)C1CCN(C)CC1)c1ccc(NC(=O)c2cccs2)c(Cl)c1Cl (centres unmarked) [Compound H0772, N-(2,3-dichloro-4-(1-(3-methyl-3-(1-methylpiperidin-4-yl)ureido)ethyl)phenyl)thiophene-2-carboxamide]	3 nM	7 nM	3569
CC(NC(=O)N(C)C1CCN(C)CC1)c1ccc(C(=O)Nc2cccs2)c(Cl)c1Cl (centres unmarked) [Compound H0773, 2,3-dichloro-4-(1-(3-methyl-3-(1-methylpiperidin-4-yl)ureido)ethyl)-N-(thiophen-2-yl)benzamide]	608 nM	> 30000 nM	
CC(NC(=O)N(C)C1CCN(C)CC1)c1ccc(-c2sccc2C(N)=O)c(Cl)c1Cl (centres unmarked) [Compound H0774, 2-(2,3-dichloro-4-(1-(3-methyl-3-(1-methylpiperidin-4-yl)ureido)ethyl)phenyl)thiophene-3-carboxamide]	3400 nM	> 30000 nM	
CC(NC(=O)N(C)C1CCN(C)CC1)c1ccc(C#Cc2ccc(CO)s2)c(Cl)c1Cl (centres unmarked) [Compound H0775, 3-(1-(2,3-dichloro-4-((5-(hydroxymethyl)thiophen-2-yl)ethynyl)phenyl)ethyl)-1-methyl-1-(1-methylpiperidin-4-yl)urea]	74 nM	> 5000 nM	
CC(NC(=O)N(C)C1CCN(C)CC1)c1ccc(C#Cc2ccc(C(N)=O)s2)c(Cl)c1Cl (centres unmarked) [Compound H0776, 5-((2,3-dichloro-4-(1-(3-methyl-3-(1-methylpiperidin-4-yl)ureido)ethyl)phenyl)ethynyl)thiophene-2-carboxamide]	120 nM	> 4000 nM	
CC(NC(=O)N(C)C1CCN(C)CC1)c1ccc(Nc2cccs2)c(Cl)c1Cl (centres unmarked) [Compound H0777, 3-(1-(2,3-dichloro-4-(thiophen-2-ylamino)phenyl)ethyl)-1-methyl-1-(1-methylpiperidin-4-yl)urea]	715 nM	600 nM	2288
CC(NC(=O)N(C)C1CCN(C)CC1)c1ccc(-c2cncc(N)n2)c(Cl)c1Cl (centres unmarked) [Compound H0780, 3-(1-(4-(6-aminopyrazin-2-yl)-2,3-dichlorophenyl)ethyl)-1-methyl-1-(1-methylpiperidin-4-yl)urea]	63 nM	> 30000 nM	
CC(NC(=O)N(C)C1CCN(C)CC1)c1ccc(-c2ccnnc2)c(Cl)c1Cl (centres unmarked) [Compound H0783, 3-(1-(2,3-dichloro-4-(pyridazin-4-yl)phenyl)ethyl)-1-methyl-1-(1-methylpiperidin-4-yl)urea]	681 nM	30 nM	
CC(NC(=O)N(C)C1CCN(C)CC1)c1ccc(NC(=O)Nc2cccs2)c(Cl)c1Cl (centres unmarked) [Compound H0784, 3-(1-(2,3-dichloro-4-(4-(thiophen-2-yl)ureido)phenyl)ethyl)-1-methyl-1-(1-methylpiperidin-4-yl)urea]	529 nM	> 30000 nM	
CC(NC(=O)N(C)C1CCN(C)CC1)c1ccc2c(NC3CC3)noc2c1 (centres unmarked) [Compound H0787, 3-(1-(3-(cyclopropylamino)benzo[d]isoxazol-6-yl)ethyl)-1-methyl-1-(1-methylpiperidin-4-yl)urea]	12000 nM	3000 nM	
CC(NC(=O)N(C)C1CCN(C)CC1)c1ccc(-c2cncc(C#N)n2)c(Cl)c1Cl (centres unmarked) [Compound H0788, 3-(1-(2,3-dichloro-4-(6-cyanopyrazin-2-yl)phenyl)ethyl)-1-methyl-1-(1-methylpiperidin-4-yl)urea]	88 nM	20 nM	1230
COC(=O)c1cncc(-c2ccc(C(C)NC(=O)N(C)C3CCN(C)CC3)c(Cl)c2Cl)n1 (centres unmarked) [Compound H0789, methyl 6-(2,3-dichloro-4-(1-(3-methyl-3-(1-methylpiperidin-4-yl)ureido)ethyl)phenyl)pyrazine-2-carboxylate]	284 nM	26 nM	1137
CC(NC(=O)N(C)C1CCN(C)CC1)c1ccc(-c2cnc(N)s2)c(Cl)c1Cl (centres unmarked) [Compound H0792, 3-(1-(4-(2-aminothiazol-5-yl)-2,3-dichlorophenyl)ethyl)-1-methyl-1-(1-methylpiperidin-4-yl)urea]	16 nM	7 nM	1096

Next, values leading:

IC50 [1]	EC50 [2]	Emax [2]	SMILES
60 nM	> 30000 nM		CC(NC(=O)N(C)C1CCN(C)CC1)c1ccc(C#Cc2cncnc2)c(Cl)c1Cl (centres unmarked) [Compound H0753, 3-(1-(2,3-dichloro-4-(pyrimidin-5-ylethynyl)phenyl)ethyl)-1-methyl-1-(1-methylpiperidin-4-yl)urea]
159 nM	654 nM	2704	CCOC(C#Cc1ccc(C(C)NC(=O)N(C)C2CCN(C)CC2)c(Cl)c1Cl)OCC (centres unmarked) [Compound H0757, 3-(1-(2,3-dichloro-4-(3,3-diethoxyprop-1-yn-1-yl)phenyl)ethyl)-1-methyl-1-(1-methylpiperidin-4-yl)urea]
6200 nM	> 30000 nM		CC(NC(=O)N(C)C1CCN(C)CC1)c1ccc(-c2cnc(C(N)=O)cn2)c(Cl)c1Cl (centres unmarked) [Compound H0760]
835 nM	> 30000 nM		CC(NC(=O)N(C)C1CCN(C)CC1)c1ccc(C#Cc2c[nH]cn2)c(Cl)c1Cl (centres unmarked) [Compound H0763, 3-(1-(4-((1H-imidazol-4-yl)ethynyl)-2,3-dichlorophenyl)ethyl)-1-methyl-1-(1-methylpiperidin-4-yl)urea]
700 nM	294 nM	1783	CC(NC(=O)N(C)C1CCN(C)CC1)c1ccc(-c2cnc(CO)cn2)c(Cl)c1Cl (centres unmarked) [Compound H0770, 3-(1-(2,3-dichloro-4-(5-(hydroxymethyl)pyrazin-2-yl)phenyl)ethyl)-1-methyl-1-(1-methylpiperidin-4-yl)urea]
33 nM	90 nM	2869	CC(NC(=O)N(C)C1CCN(C)CC1)c1ccc(C#CCc2cccs2)c(Cl)c1Cl (centres unmarked) [Compound H0785, 3-(1-(2,3-dichloro-4-(3-(thiophen-2-yl)prop-1-yn-1-yl)phenyl)ethyl)-1-methyl-1-(1-methylpiperidin-4-yl)urea]
855 nM	242 nM	980	CC(NC(=O)N(C)C1CCN(C)CC1)c1ccc(-c2cncc(CCl)n2)c(Cl)c1Cl (centres unmarked) [Compound H0786, 3-(1-(2,3-dichloro-4-(6-(chloromethyl)pyrazin-2-yl)phenyl)ethyl)-1-methyl-1-(1-methylpiperidin-4-yl)urea]
35 nM	32 nM	2810	CC(NC(=O)N(C)C1CCN(C)CC1)c1ccc(C#N)c2ccccc12 (centres unmarked) [Compound H0790, 3-(1-(4-cyanonaphthalen-1-yl)ethyl)-1-methyl-1-(1-methylpiperidin-4-yl)urea]
75 nM	> 30000 nM		CC(NC(=O)N(C)C1CCN(C)CC1)c1ccc(-c2cncc(Cl)n2)c(Cl)c1Cl (centres unmarked) [Compound H0791, 3-(1-(2,3-dichloro-4-(6-chloropyrazin-2-yl)phenyl)ethyl)-1-methyl-1-(1-methylpiperidin-4-yl)urea]
21 nM	22 nM	3501	CC(NC(=O)N(C)C1CCN(C)CC1)c1ccc(-c2nccnn2)c(Cl)c1Cl (centres unmarked) [Compound H0793, 3-(1-(2,3-dichloro-4-(1,2,4-triazin-3-yl)phenyl)ethyl)-1-methyl-1-(1-methylpiperidin-4-yl)urea]

From patent publication US9546157B2, “Asymmetric piperidinyl-substituted ureas as medicines” (Helsinn Healthcare SA, priority 2014, dated 2017)
